# Measured values as given in BindingDB's records for doi:10.1016/s0960-894x(01)00405-x (Glaxosmithkline, 2001).
# Target: T1, Enoyl-[acyl-carrier-protein] reductase [NADPH] FabI (Staphylococcus aureus (strain MRSA252), UniProt Q6GI75)
# T1 sequence (Q6GI75 whole entry): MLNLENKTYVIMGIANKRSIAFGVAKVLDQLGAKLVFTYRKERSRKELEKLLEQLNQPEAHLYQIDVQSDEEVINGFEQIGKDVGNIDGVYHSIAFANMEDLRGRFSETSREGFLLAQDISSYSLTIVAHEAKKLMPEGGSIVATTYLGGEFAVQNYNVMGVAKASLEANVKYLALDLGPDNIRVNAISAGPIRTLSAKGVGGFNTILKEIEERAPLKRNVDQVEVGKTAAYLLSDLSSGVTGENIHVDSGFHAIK
# Test: Enzyme Inhibition Assay
# Conditions: pH 6.5; 30 °C
# Description: Assays were carried out in half-area, 96-well microtiter plates. Compounds were evaluated in assay mixtures containing components specific for each enzyme. Inhibitors were varied over the range 0.01-10 uM. The consumption of NAD(P)H was monitored for 20 min at 30 °C by following the change in absorbance at 340 nm. IC50 values were estimated from a fit of the initial velocities to a standard equation.
row,SMILES,IC50 [nM]
1,"O=C(c1ccccc1)N1CCc2c([nH]c3ccccc23)C1 [2-benzoyl-1H,2H,3H,4H,9H-pyrido[3,4-b]indole]",2700
2,"O=C(c1ccc(O)cc1)N1CCc2c(n(Cc3ccccc3)c3ccccc23)C1 [4-({9-benzyl-1H,2H,3H,4H,9H-pyrido[3,4-b]indol-2-yl}carbonyl)phenol]",1300
3,"Cn1c2c(c3ccccc31)CCN(C(=O)c1ccc(O)cc1)C2 [4-({9-methyl-1H,2H,3H,4H,9H-pyrido[3,4-b]indol-2-yl}carbonyl)phenol]",1400
4,"O=C(c1ccc(O)cc1)N1CCc2c([nH]c3ccccc23)C1 [4-{1H,2H,3H,4H,9H-pyrido[3,4-b]indol-2-ylcarbonyl}phenol]",1400
5,"COC(=O)CCCCn1c2c(c3ccccc31)CCN(C(=O)c1ccc(O)cc1)C2 [methyl 5-{2-[(4-hydroxyphenyl)carbonyl]-1H,2H,3H,4H,9H-pyrido[3,4-b]indol-9-yl}pentanoate]",4600

# The remaining compounds from weak to strong by IC50, led by results:
row,IC50 [nM],SMILES
1,9800,"COC(=O)Cn1c2c(c3ccccc31)CCN(C(=O)c1ccc(O)cc1)C2 [methyl 2-{2-[(4-hydroxyphenyl)carbonyl]-1H,2H,3H,4H,9H-pyrido[3,4-b]indol-9-yl}acetate]"
2,7800,"CN1Cc2cc(C(=O)N3CCc4c([nH]c5ccccc45)C3)ccc2NC(CC(=O)O)C1=O (stereo not drawn) [2-(4-methyl-3-oxo-7-{1H,2H,3H,4H,9H-pyrido[3,4-b]indol-2-ylcarbonyl}-2,3,4,5-tetrahydro-1H-1,4-benzodiazepin-2-yl)acetic acid]"
3,420,"O=C(c1ccc(O)cc1)N1CCc2c(n(Cc3cccc(O)c3)c3ccccc23)C1 [4-({9-[(3-hydroxyphenyl)methyl]-1H,2H,3H,4H,9H-pyrido[3,4-b]indol-2-yl}carbonyl)phenol]"
